Experimental data reported in patent publication US20080200533A1, “Drug or Pharmaceutical Compounds and a Preparation Thereof” (priority 2005, published 2008).
Read-outs that look alike come from different tables or passages of the source. Each block holds one molecule with its values, some of them ahead of it.

Columns and labels:
[1] = oral; cited from earlier work
[2] = Description: 1 gram mole equivalent of (S)-2,6-diaminohexanoic acid is added to the above ethyl acetate solution and stirred at ambient room temperature.
CYP3A4 = settings: cited from earlier work
[3] = cited from earlier work

Structure (SMILES): CC(C)c1c(C(=O)Nc2ccccc2)c(-c2ccccc2)c(-c2ccc(F)cc2)n1CC[C@@H](O)C[C@@H](O)CC(=O)O (relative stereo) [atorvastatin, [R—(R*,R*)]-2-(4-fluorophenyl)-β,δ-dihydroxy-5-((1-methylethyl)-3-phenyl-4-[(phenylamino)-carbonyl]-1H-pyrrole-1-heptanoic acid]
orally administered drug absorbed from the intestine [1]: about 30%

solubility in water (in words) [2]: water insoluble
Structure (SMILES): CC(C)c1nc(N(C)S(C)(=O)=O)nc(-c2ccc(F)cc2)c1/C=C/[C@@H](O)C[C@@H](O)CC(=O)O [Rosuvastatin acid]

Structure (SMILES): CC(C)c1c(C(=O)Nc2ccccc2)c(-c2ccccc2)c(-c2ccc(F)cc2)n1CC[C@@H]1C[C@@H](O)CC(=O)O1 [atorvastatin lactone]
affinity to CYP3A4 compared with the acid (CYP3A4): significantly higher affinity
CYP-dependent metabolism to ortho-hydroxy metabolite, compared with atorvastatin acid (CYP3A4; human liver microsomes): 20 fold
CYP-dependent metabolism to para-hydroxy metabolite, compared with atorvastatin acid (CYP3A4; human liver microsomes): 83 fold

Structure (SMILES): CC[C@H](CC[C@@H](C)[C@H]1CC[C@H]2[C@@H]3CC=C4C[C@@H](O)CC[C@]4(C)[C@H]3CC[C@]12C)C(C)C [beta sitosterol]
beta sitosterol soluble in triolein oil ([3]; linked as an ester to decanoic acid): 1.1%
beta sitosterol soluble in triolein oil ([3]; linked as an ester to lauric acid): 0.6%
beta sitosterol soluble in triolein oil ([3]; linked as an ester to palmitic acid): 0.1%
